Results on five compounds are retold here after patent US8426587B2, “Haloallylamine inhibitors of SSAO/VAP-1 and uses therefor” (Pharmaxis Ltd., priority 2007, dated 2013).

SMILES strings stand for the structures. Counter-ions that a name gives are not always drawn. Like-named read-outs stand apart in the source and are kept apart here. A value given as a limit tells only on which side of the number the result lay.

The target of experiment [1] is T1, Human SSAO/VAP-1 (Homo sapiens, UniProt Q16853).
T1 sequence (Q16853 1-763): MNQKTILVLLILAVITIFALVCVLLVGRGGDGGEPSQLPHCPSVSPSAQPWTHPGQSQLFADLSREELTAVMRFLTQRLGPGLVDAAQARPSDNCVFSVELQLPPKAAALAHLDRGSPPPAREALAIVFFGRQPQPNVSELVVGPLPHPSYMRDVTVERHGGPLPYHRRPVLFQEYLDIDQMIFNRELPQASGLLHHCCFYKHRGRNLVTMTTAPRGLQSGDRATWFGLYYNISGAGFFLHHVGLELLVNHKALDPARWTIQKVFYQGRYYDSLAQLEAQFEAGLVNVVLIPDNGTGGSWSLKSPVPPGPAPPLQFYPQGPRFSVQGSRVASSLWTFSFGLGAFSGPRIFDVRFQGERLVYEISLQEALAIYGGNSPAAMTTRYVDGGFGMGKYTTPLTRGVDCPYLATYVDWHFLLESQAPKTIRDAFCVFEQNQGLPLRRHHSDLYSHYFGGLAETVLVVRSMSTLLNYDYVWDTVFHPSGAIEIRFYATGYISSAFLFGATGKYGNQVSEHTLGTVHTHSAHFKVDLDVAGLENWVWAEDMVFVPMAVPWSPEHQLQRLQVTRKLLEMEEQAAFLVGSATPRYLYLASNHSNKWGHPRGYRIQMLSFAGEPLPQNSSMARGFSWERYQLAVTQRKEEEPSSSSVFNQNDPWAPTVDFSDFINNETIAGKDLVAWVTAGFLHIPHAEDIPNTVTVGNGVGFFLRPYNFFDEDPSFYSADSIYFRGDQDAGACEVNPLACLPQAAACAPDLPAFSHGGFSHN
The experiment is described as follows: Inhibition of amine oxidase activity of purified human SSAO/VAP-1 (Amplex Red). The format is biochemical. The settings on record: purified human SSAO, 300 μM benzylamine. The protocol: To measure the SSAO activity, adipocyte homogenate (0.5 mg/mL) or adipocytes (adhering cells) containing 0.5 mM pargyline, or purified human SSAO was incubated in 0.1 M sodium phosphate buffer pH 7.4 with varying concentrations of test compounds for 30 min at 37° C. The homogenate was then incubated at 37° C. with 60 μM Amplex® Red, 0.75 U/mL HRP and 40 μM benzylamine (mouse SSAO) or 300 μM benzylamine (human SSAO) and the formation of resorufin was measured (excitation range 530-560 nm and emission at 590 nm) every 10 min in either a Tecan Infinite 200 or a BMG plate reader. The IC50 values were estimated using Graphpad Prism software. The IC50 is an estimation of the concentration of the test compound to inhibit the amine oxidase activity of SSAO/VAP-1 by 50%. The IC50 values of certain invention compounds are included in Table 1.

Experiment [2] concerns the target T2, SSAO/VAP-1 (Mus musculus, UniProt O70423).
T2 construct: the genital fat was excised and frozen; The tissue was homogenized; from tissue; host or cells: genital fat of BALB/C mice
T2 sequence (O70423 1-765): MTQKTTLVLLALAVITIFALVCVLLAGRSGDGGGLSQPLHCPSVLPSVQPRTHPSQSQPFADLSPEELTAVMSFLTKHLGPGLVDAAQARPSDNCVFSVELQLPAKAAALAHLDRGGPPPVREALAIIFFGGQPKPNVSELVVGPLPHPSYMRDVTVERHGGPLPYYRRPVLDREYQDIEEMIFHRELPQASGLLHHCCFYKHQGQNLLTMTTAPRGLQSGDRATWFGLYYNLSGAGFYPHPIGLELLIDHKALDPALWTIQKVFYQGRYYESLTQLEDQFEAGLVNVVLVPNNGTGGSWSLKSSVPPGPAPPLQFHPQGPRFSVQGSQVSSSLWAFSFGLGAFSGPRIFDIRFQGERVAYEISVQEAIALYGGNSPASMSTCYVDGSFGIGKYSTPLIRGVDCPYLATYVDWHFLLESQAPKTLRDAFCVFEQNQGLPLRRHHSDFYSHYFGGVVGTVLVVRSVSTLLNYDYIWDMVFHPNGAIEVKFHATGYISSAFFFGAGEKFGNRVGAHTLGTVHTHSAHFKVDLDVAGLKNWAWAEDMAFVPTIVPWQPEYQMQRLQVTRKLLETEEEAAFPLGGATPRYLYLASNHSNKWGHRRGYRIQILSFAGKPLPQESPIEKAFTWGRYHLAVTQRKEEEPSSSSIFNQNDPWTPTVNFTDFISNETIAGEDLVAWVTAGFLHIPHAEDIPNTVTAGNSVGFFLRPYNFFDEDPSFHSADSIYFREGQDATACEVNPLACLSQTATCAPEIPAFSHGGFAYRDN
The experiment is described as follows: In vivo inhibition of SSAO/VAP-1 activity in mouse genital fat. More on the design: species or system BALB/C mice. Conditions: ip. Here is the method:
In vivo inhibition was assessed in mouse genital fat, a tissue with high SSAO/VAP-1 expression. 10 BALB/C mice (5 males and 5 females) were administered 0 mg/kg, 10 mg/kg, 30 mg/kg or 100 mg/kg SSAO/VAP-1 inhibitor by intraperitoneal injection. Two hours after administration the mice were sacrificed and the genital fat was excised and frozen. The tissue was homogenized in 0.01 M sodium phosphate buffer pH 7.4 (10 mL/g) and used to measure SSAO activity using Amplex® Red. ED50 was estimated Using Graphpad Prism software.

The mark [3] stands for this setting: female BALB/C mice, intraperitoneal, genital fat SSAO activity two hours after administration, read-out: Female Mice ED50 [ip].
The mark [4] stands for this setting: male BALB/C mice, intraperitoneal, genital fat SSAO activity two hours after administration, read-out: Male Mice ED50 [ip].

As usually defined, the IC50 is the concentration needed to halve the response being measured. A lower IC50 goes with inhibition by little substance. The term ED50 denotes the dose at which the effect has come halfway, by size or by number of responders. As to `Cc1nc2cc(OC/C(F)=C\CN)ccc2s1.Cl` [(E)-3-Fluoro-4-(2-methylbenzo[d]thiazol-5-yloxy)but-2-en-1-amine hydrochloride], the half-inhibitory concentration (IC50) in experiment [1] (30 min at 37° C. preincubation) is below 1000 nM. Also, the figures for the ED50 in experiment [2] (setting [3]) and in experiment [2] (setting [4]) were below 100 mg/kg and below 50 mg/kg, respectively.
In the same order, the values of `CS(=O)(=O)c1ccc(OC/C(F)=C\CN)cc1.Cl` [(E)-3-Fluoro-4-(4-(methylsulfonyl)phenoxy)but-2-en-1-amine hydrochloride] are below 1000 nM, below 300 mg/kg and below 100 mg/kg.
`NC/C=C(/F)COc1ccc(C(=O)NC2CCCCC2)cc1` [(E)-4-(4-amino-2-fluorobut-2-enyloxy)-N-cyclohexylbenzamide hydrochloride]: the half-maximal inhibitory concentration (IC50) in experiment [1] (30 min at 37° C. preincubation) was below 1000 nM. In addition, the 50% effective dose (ED50) in experiment [2] (read-out: Female Mice ED50 [ip]) and in experiment [2] (read-out: Male Mice ED50 [ip]) was below 50 mg/kg in each case.
Take `C[C@H](NS(=O)(=O)c1ccc(OC/C(F)=C\CN)cc1)c1ccccc1.Cl` [(S,E)-4-(4-Amino-2-fluorobut-2-enyloxy)-N-(1-phenylethyl)benzenesulfonamide]: in experiment [1] (30 min at 37° C. preincubation), the IC50 is below 1000 nM. In addition, the ED50 in experiment [2] (setting [3]) and in experiment [2] (setting [4]) was below 50 mg/kg in each case.
The compound `NC/C(=C/F)CCc1ccc(F)cc1` [Mofegiline, reference compound] returned an IC50 in experiment [1] of 21 nM. In addition, the median effective dose (ED50) in experiment [2] (setting [3]) and in experiment [2] (setting [4]) was below 1 mg/kg throughout.
